Laboratory results as given in patent US10294229B2, “Heteroaryl substituted aminopyridine compounds” (BRISTOL-MYERS SQUIBB COMPANY, priority 2015, dated 2019).

Target: IRAK4 (Homo sapiens (Human), UniProt Q9NWZ3)
Assay: IRAK4 Inhibition Assay
Assay type: biochemical
Details: ATP 500 μM; IRAK4 0.6 nM
Protocol: The assays were performed in U-bottom 384-well plates. The final assay volume was 30 μL prepared from 15 μL additions of enzyme and substrates (fluoresceinated peptide and ATP) and test compounds in assay buffer (20 mM HEPES pH 7.2, 10 mM MgCl2, 0.015% Brij 35 and 4 mM DTT). The reaction was initiated by the combination of IRAK4 with substrates and test compounds. The reaction mixture was incubated at room temperature for 60 min. and terminated by adding 45 μL of 35 mM EDTA to each sample. The reaction mixture was analyzed on the Caliper LABCHIP® 3000 (Caliper, Hopkinton, Mass.) by electrophoretic separation of the fluorescent substrate and phosphorylated product. Inhibition data were calculated by comparison to no enzyme control reactions for 100% inhibition and vehicle-only reactions for 0% inhibition. The final concentrations of reagents in the assays are ATP, 500 μM; FL-IPTSPITTTYFFFKKK peptide 1.5 μM; IRAK4, 0.6 nM; and DMSO, 1.6%.

Sequence of IRAK4 (Q9NWZ3 whole entry, species assumed): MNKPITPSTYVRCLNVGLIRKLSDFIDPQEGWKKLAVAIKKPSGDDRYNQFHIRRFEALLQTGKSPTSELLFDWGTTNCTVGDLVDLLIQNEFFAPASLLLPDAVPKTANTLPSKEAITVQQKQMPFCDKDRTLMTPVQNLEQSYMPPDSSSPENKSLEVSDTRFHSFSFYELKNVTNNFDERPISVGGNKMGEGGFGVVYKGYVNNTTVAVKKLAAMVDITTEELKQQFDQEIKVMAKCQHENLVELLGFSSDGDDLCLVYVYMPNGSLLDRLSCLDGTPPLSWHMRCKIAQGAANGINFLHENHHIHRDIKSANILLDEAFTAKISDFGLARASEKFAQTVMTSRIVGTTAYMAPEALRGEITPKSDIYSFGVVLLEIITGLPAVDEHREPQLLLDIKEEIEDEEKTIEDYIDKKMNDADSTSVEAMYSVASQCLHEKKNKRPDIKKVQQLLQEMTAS

IC50 | SMILES
7 nM | CC(C)Nc1cc(-n2cnc3cc(C#N)cnc32)ncc1-c1cn([C@@H]2COC[C@H]2O)nn1 (single isomer, unassigned) [Example 74]
8 nM | CC(C)Nc1cc(-n2cnc3cc(C#N)cnc32)ncc1-c1cn(CCCF)nn1 [Example 45, 3-(5-(1-(3-fluoropropyl)-1H-1,2,3-triazol-4-yl)-4-(isopropylamino)pyridin-2-yl)-3H-imidazo[4,5-b]pyridine-6-carbonitrile]
399 nM | CC(C)Nc1cc(-n2ncc3cc(C#N)cnc32)ncc1-c1cn(-c2ccc(F)c(C#N)c2)nn1 [Example 104, 1-(5-(1-(3-cyano-4-fluorophenyl)-1H-1,2,3-triazol-4-yl)-4-(isopropylamino)pyridin-2-yl)-1H-pyrazolo[3,4-b]pyridine-5-carbonitrile]
235 nM | CC(C)Nc1cc(-n2ncc3cc(C#N)cnc32)ncc1-c1cn(C2CN(C(c3ccccc3)c3ccccc3)C2)nn1 [Example 100, 1-(5-(1-(1-benzhydrylazetidin-3-yl)-1H-1,2,3-triazol-4-yl)-4-(isopropylamino)pyridin-2-yl)-1H-pyrazolo[3,4-b]pyridine-5-carbonitrile]
17 nM | CCCc1cn(-c2cnc(-n3cnc4cnc(N)nc43)cc2NC(C)C)nn1 [Example 279, 9-(4-(isopropylamino)-5-(4-propyl-1H-1,2,3-triazol-1-yl)pyridin-2-yl)-9H-purin-2-amine]
76 nM | CC(C)Nc1cc(-n2ncc3cc(C#N)cnc32)ncc1-c1cn(Cc2ccc(F)cc2)nn1 [Example 112, 1-(5-(1-(4-fluorobenzyl)-1H-1,2,3-triazol-4-yl)-4-(isopropylamino)pyridin-2-yl)-1H-pyrazolo[3,4-b]pyridine-5-carbonitrile]
27 nM | CCOC(=O)N1CC[C@@H](n2cc(-c3cnc(-n4ncc5cc(C#N)cnc54)cc3NC(C)C)nn2)[C@@H](O)C1 [Example 189, (3S,4R)-ethyl 4-(4-(6-(5-cyano-1H-pyrazolo[3,4-b]pyridin-1-yl)-4-(isopropylamino)pyridin-3-yl)-1H-1,2,3-triazol-1-yl)-3-hydroxypiperidine-1-carboxylate]
35 nM | CC(C)Nc1cc(-n2ncc3cc(C#N)cnc32)ncc1-c1cn(CCCc2ccccc2)cn1 [Example 241, 1-(4-(isopropylamino)-5-(1-(3-phenylpropyl)-1H-imidazol-4-yl)pyridin-2-yl)-1H-pyrazolo [3,4-b]pyridine-5-carbonitrile]
39 nM | CC(C)Nc1cc(-n2ncc3cc(C#N)cnc32)ncc1-n1cc(CCCN)cn1 [Example 251, 1-(5-(4-(3-aminopropyl)-1H-pyrazol-1-yl)-4-(isopropylamino)pyridin-2-yl)-1H-pyrazolo[3,4-b]pyridine-5-carbonitrile]
15 nM | CC(C)Nc1cc(-n2ncc3cc(C#N)cnc32)ncc1-c1cn(Cc2ccccc2)nn1 [Example 107, 1-(5-(1-benzyl-1H-1,2,3-triazol-4-yl)-4-(isopropylamino)pyridin-2-yl)-1H-pyrazolo[3,4-b]pyridine-5-carbonitrile]
20 nM | CC(C)Nc1cc(-n2ncc3cc(C#N)cnc32)ncc1-c1cnn(C2CCOCC2)c1 [Example 257, 1-(4-(isopropylamino)-5-(1-(tetrahydro-2H-pyran-4-yl)-1H-pyrazol-4-yl)pyridin-2-yl)-1H-pyrazolo[3,4-b]pyridine-5-carbonitrile]
213 nM | CC(C)Nc1cc(-n2ncc3cc(C#N)cnc32)ncc1-n1cc(C(C)(C)N)nn1 [Example 312, 1-(5-(4-(2-aminopropan-2-yl)-1H-1,2,3-triazol-1-yl)-4-(isopropylamino)pyridin-2-yl)-1H-pyrazolo[3,4-b]pyridine-5-carbonitrile]
93 nM | CCCn1cc(-c2cnc(-n3ncc4cc(C#N)cnc43)cc2Nc2cnn(CC)c2)nn1 [Example 58, 1-(4-((1-ethyl-1H-pyrazol-4-yl)amino)-5-(1-propyl-1H-1,2,3-triazol-4-yl)pyridin-2-yl)-1H-pyrazolo [3,4-b]pyridine-5-carbonitrile]
30 nM | CC(C)Nc1cc(-n2ncc3cc(C#N)cnc32)ncc1-c1cn(Cc2cccnc2)cn1 [Example 235, 1-(4-(isopropylamino)-5-(1-(pyridin-3-ylmethyl)-1H-imidazol-4-yl)pyridin-2-yl)-1H-pyrazolo[3,4-b]pyridine-5-carbonitrile]
202 nM | CC(C)Nc1cc(-n2ncc3cc(C#N)cnc32)ncc1-n1ccc(C(F)(F)F)n1 [Example 247, 1-(4-(isopropylamino)-5-(3-(trifluoromethyl)-1H-pyrazol-1-yl)pyridin-2-yl)-1H-pyrazolo[3,4-b]pyridine-5-carbonitrile]
80 nM | CC(C)Nc1cc(-n2ncc3cc(C#N)cnc32)ncc1-n1cc(CN(C)C)nn1 [Example 308, 1-(5-(4-((dimethylamino)methyl)-1H-1,2,3-triazol-1-yl)-4-(isopropylamino)pyridin-2-yl)-1H-pyrazolo[3,4-b]pyridine-5-carbonitrile]

IC50 | SMILES
3 nM | CC(C)Nc1cc(-n2ccc3cncnc32)ncc1-c1cn(CCOCCOCCOCCO)nn1 [Example 9, 2-(2-(2-(2-(4-(4-(isopropylamino)-6-(7H-pyrrolo[2,3-d]pyrimidin-7-yl)pyridin-3-yl)-1H-1,2,3-triazol-1-yl)ethoxy)ethoxy)ethoxy) ethanol]
63 nM | CC(C)Nc1cc(-n2ncc3cc(C#N)cnc32)ncc1-c1cn(C[C@H](C)O)cn1 [Example 222, (S)-1-(5-(1-(2-hydroxypropyl)-1H-imidazol-4-yl)-4-(isopropylamino)pyridin-2-yl)-1H-pyrazolo[3,4-b]pyridine-5-carbonitrile]
34 nM | CCCc1cn(-c2cnc(-n3ncc4cc(C#N)cnc43)cc2NCC(C)(C)O)nn1 [Example 287, 1-(4-((2-hydroxy-2-methylpropyl)amino)-5-(4-propyl-1H-1,2,3-triazol-1-yl)pyridin-2-yl)-1H-pyrazolo[3,4-b]pyridine-5-carbonitrile]
34 nM | CC(C)Nc1cc(-n2ncc3cc(C#N)cnc32)ncc1-n1cc(CF)nn1 [Example 329, 1-(5-(4-(fluoromethyl)-1H-1,2,3-triazol-1-yl)-4-(isopropylamino)pyridin-2-yl)-1H-pyrazolo[3,4-b]pyridine-5-carbonitrile]
6 nM | CC(=O)N1CC(n2cc(-c3cnc(-n4ncc5cc(Cl)cnc54)cc3NC(C)C)nn2)C1 [Example 155, 1-(3-(4-(6-(5-chloro-1H-pyrazolo[3,4-b]pyridin-1-yl)-4-(isopropylamino)pyridin-3-yl)-1H-1,2,3-triazol-1-yl)azetidin-1-yl)ethanone]
35 nM | CC(C)Nc1cc(-n2ncc3cc(C#N)cnc32)ncc1-c1cn(Cc2nc3ccccc3[nH]2)nn1 [Example 108, 1-(5-(1-((1H-benzo[d]imidazol-2-yl)methyl)-1H-1,2,3-triazol-4-yl)-4-(isopropylamino)pyridin-2-yl)-1H-pyrazolo[3,4-b]pyridine-5-carbonitrile]
78 nM | CCCc1cn(-c2cnc(-n3ncc4cc(C#N)cnc43)cc2N[C@@H](C)CO)nn1 [Example 273, (S)-1-(4-((1-hydroxypropan-2-yl)amino)-5-(4-propyl-1H-1,2,3-triazol-1-yl)pyridin-2-yl)-1H-pyrazolo[3,4-b]pyridine-5-carbonitrile]
25 nM | CC(C)Nc1cc(-n2ncc3cc(Cl)cnc32)ncc1-c1cn(C)nn1 [Example 165, 2-(5-chloro-1H-pyrazolo[3,4-b]pyridin-1-yl)-N-isopropyl-5-(1-methyl-1H-1,2,3-triazol-4-yl)pyridin-4-amine]
334 nM | CC(C)Nc1cc(-n2ncc3cc(C#N)cnc32)ncc1-n1cc(-c2ccccn2)cn1 [Example 245, 1-(4-(isopropylamino)-5-(4-(pyridin-2-yl)-1H-pyrazol-1-yl)pyridin-2-yl)-1H-pyrazolo[3,4-b]pyridine-5-carbonitrile]
153 nM | CC(C)Nc1cc(-n2ncc3cc(C#N)cnc32)ncc1-c1cnn(C2CC2)c1 [Example 259, 1-(5-(1-cyclopropyl-1H-pyrazol-4-yl)-4-(isopropylamino)pyridin-2-yl)-1H-pyrazolo[3,4-b]pyridine-5-carbonitrile]
217 nM | CC(C)Nc1cc(-n2ncc3cc(C#N)cnc32)ncc1-c1cn(-c2ccc(F)cc2)nn1 [Example 109, 1-(5-(1-(4-fluorophenyl)-1H-1,2,3-triazol-4-yl)-4-(isopropylamino)pyridin-2-yl)-1H-pyrazolo[3,4-b]pyridine-5-carbonitrile]
30 nM | CC(O)Cc1cn(-c2cnc(-n3ncc4cc(C#N)cnc43)cc2NC2CC2)nn1 (single isomer, unassigned) [Example 275, 1-(4-(cyclopropylamino)-5-(4-(2-hydroxypropyl)-1H-1,2,3-triazol-1-yl)pyridin-2-yl)-1H-pyrazolo[3,4-b]pyridine-5-carbonitrile]
4 nM | COC(=O)N1CC[C@@H](n2cc(-c3cnc(-n4ncc5cc(C#N)cnc54)cc3NC(C)C)nn2)[C@H](O)C1 (single isomer, unassigned) [Example 201]
21 nM | CC(C)Nc1cc(-n2ncc3cc(C#N)cnc32)ncc1-c1cn(CC(O)Cc2ccccc2)nn1 (single isomer, unassigned) [Example 77, 1-(5-(1-(2-hydroxy-3-phenylpropyl)-1H-1,2,3-triazol-4-yl)-4-(isopropylamino)pyridin-2-yl)-1H-pyrazolo [3,4-b]pyridine-5-carbonitrile]
2 nM | CCOC(=O)Cn1cc(-c2cnc(-n3ncc4cc(C#N)cnc43)cc2NC(C)C)nn1 [Example 98, Ethyl 2-(4-(6-(5-cyano-1H-pyrazolo[3,4-b]pyridin-1-yl)-4-(isopropylamino)pyridin-3-yl)-1H-1,2,3-triazol-1-yl)acetate]
